US20070161123A1, “DETERMINATION OF CONCENTRATION OF FK778 BY COMPETITIVE IMMUNOASSAY” (priority 2006, published 2007)

Legend:
[1] = test system: antibody to FK778; test: Interference of prescription drugs in the […] FK778 competitive chemiluminescent immunoassay; format: binding
Experimental: FK778 assays were performed by an […]® instrument, commercially available from Abbott Laboratories, Abbott Park, Ill., according to the following procedure. See also U.S. Pat. Nos. 5,795,784 and 5,856,194, both of which are incorporated herein by reference. A serum sample (10 μL) was diluted with Line Diluent at a ratio of 1 part sample to 20 parts Line Diluent. A portion of the diluted sample (10 μL) was mixed with 90 μL of Conjugate Reagent and 50 μL of Line Diluent. Magnetic Microparticle Reagent (50 μL) and Bihapten Tracer Reagent (50 μL) were added to the foregoing mixture after a period of six (6) seconds. The resulting mixture (250 μL) was incubated for 25 minutes. The microparticles were washed three (3) times with 1 mL of Line Diluent. The magnetic particles were attracted to a magnet at the same time that they were being washed. The washed microparticles were treated with Pretrigger Reagent (100 μL acidic hydrogen peroxide). Finally, the chemiluminescent reaction was triggered by addition of Trigger Reagent (alkaline detergent solution (300 μL)). Measurement of light generated was carried out by means of a photomultiplier tube.
This example illustrates interference with prescription drugs. Interference was tested for 44 of 45 prescription drugs at levels recommended in NCCLS document EP-7P. Interference was tested in the presence of FK778 and absence of FK778 in the sample. Interference was defined as greater than 5 μg/mL (without FK778) or greater than 10% (with FK778). […] Both interferences were expected; fluorescein because of its competition with the FK778-fluorescein bihapten tracer and A77,1726 because of its similarity in structure to FK778.
Fluorescein is used in in vivo diagnostic procedures to measure blood flow in the eye and is not expected to be present in patients undergoing a transplant. 10 Nevertheless, fluorescein was tested more thoroughly to estimate the magnitude of the interference at concentrations lower than 400 μg/mL.
Additional testing was also carried out with A77, 1726 to assess the cross-reactivity of this molecule in the presence and absence of FK778.

[2] = humans; cited from earlier work

C/C(O)=C(\C#N)C(=O)Nc1ccc(C(F)(F)F)cc1 [A77 1726]
% Cross-reactivity A77,1726 ([1]; A77,1726 50 μg/mL, High FK778): 13%
A77,1726 measured as FK778 ([1]; A77,1726 50 μg/mL, High FK778): 152.9 µg/mL
% Cross-reactivity A77,1726 ([1]; A77,1726 50 μg/mL, Low FK778): 43%
A77,1726 measured as FK778 ([1]; A77,1726 50 μg/mL, Low FK778): 42.3 µg/mL
% Cross-reactivity A77,1726 ([1]; A77,1726 50 μg/mL, Med FK778): 24%
A77,1726 measured as FK778 ([1]; A77,1726 50 μg/mL, Med FK778): 85 µg/mL
% Cross-reactivity A77,1726 ([1]; A77,1726 100 μg/mL, High FK778): 23%
A77,1726 measured as FK778 ([1]; A77,1726 100 μg/mL, High FK778): 170.1 µg/mL
% Cross-reactivity A77,1726 ([1]; A77,1726 100 μg/mL, Low FK778): 42%
A77,1726 measured as FK778 ([1]; A77,1726 100 μg/mL, Low FK778): 62.6 µg/mL
% Cross-reactivity A77,1726 ([1]; A77,1726 100 μg/mL, Med FK778): 31%
A77,1726 measured as FK778 ([1]; A77,1726 100 μg/mL, Med FK778): 103.4 µg/mL
% Cross-reactivity A77,1726 ([1]; A77,1726 200 μg/mL, High FK778): 34%
A77,1726 measured as FK778 ([1]; A77,1726 200 μg/mL, High FK778): 209.3 µg/mL
% Cross-reactivity A77,1726 ([1]; A77,1726 200 μg/mL, Low FK778): 42%
A77,1726 measured as FK778 ([1]; A77,1726 200 μg/mL, Low FK778): 104.8 µg/mL
% Cross-reactivity A77,1726 ([1]; A77,1726 200 μg/mL, Med FK778): 37%
A77,1726 measured as FK778 ([1]; A77,1726 200 μg/mL, Med FK778): 145.5 µg/mL
% Cross-reactivity A77,1726 ([1]; A77,1726 200 μg/mL, Zero FK778): 47%
A77,1726 measured as FK778 ([1]; A77,1726 200 μg/mL, Zero FK778): 94.9 µg/mL
Interference ([1]; defined as greater than 5 μg/mL (without FK778) or greater than 10% (with FK778)): Interference was observed
plasma half-life [2]: 15 to 18 days

C#CCC/C(O)=C(\C#N)C(=O)Nc1ccc(C(F)(F)F)cc1 [FK778]
plasma half-life compared with A77 1726 [2]: shorter
